The values below come from paper PMC7617869, “Molecular glues that inhibit deubiquitylase activity and inflammatory signaling” (Nature Structural & Molecular Biology, 2025).

Experiment [1] has as its target T1, BRISC (Homo sapiens, UniProt P46736+Q15018+Q9NXR7).
T1 construct: made in house; host or cells: Spodoptera frugiperda (Sf9) insect cells, MultiBac
As to the kind of experiment: Compound library screening and hit validation (IQF diubiquitin, 1 nM BRISC). The class given is biochemical. As to the method:
Assays were performed in 384-well black flat-bottom low-flange plates (Corning, 35373) in buffer containing 50 mM HEPES–NaOH pH 7.0, 100 mM NaCl, 1 mg ml^−1 BSA, 1 mM DTT and 0.03% v/v Brij-35. Then, 10 μl of twofold concentrated enzyme stock was dispensed, followed by transfer of 200 nl of compounds (1 mM stock) using a 384-pin tool and a 15-min incubation at room temperature. Then, 10 μl of twofold concentrated substrate stock was added and the reaction was monitored by measuring fluorescence intensity (excitation, 540 nm; emission, 580 nm) after 20-min incubation at room temperature and ~50% of substrate was consumed. Orthogonal assays for verification of H20 and P12 hit compounds using USP2 (100 nM) and trypsin (125 nM) were performed in identical conditions.

For experiment [2], the target named is T1, BRISC. As to the kind of experiment: BRISC DUB activity assay (IQF K63-linked diubiquitin). The class given is biochemical. Particulars: for IC50: IQF K63-linked diubiquitin substrate, read-out: IC50, inhibition of BRISC DUB activity; for Mean V0: Fig. 1d. The procedure:
IQF assays were performed in DUB reaction buffer containing 50 mM HEPES–NaOH pH 7.0, 100 mM NaCl, 0.1 mg ml^−1 BSA, 1 mM DTT and 0.03% v/v Brij-35. […] The final concentration of BRISC WT, all BRISC mutants, HsBRISCΔLoop, MmBRISC and DrBRISCΔNΔC was 1 nM. Other enzymes were tested at the following concentrations: 5 nM ARISC (FL), 10 nM CfBRISCΔNΔC, 250 nM AMSH* (ref. [43]), 500 nM USP2 and 1 μM trypsin (Sigma, 9002-07-7). For Michaelis–Menten experiments, 1 nM BRISC with 0–1 μM IQF K63-linked diubiquitin substrate was used. Michaelis–Menten analyses and Lineweaver–Burk plots were calculated using GraphPad Prism (version 9.0).
To assess enzymatic activity, BRISC complexes were diluted to concentrations between 1 nM and 50 nM. […] Then, 20-μl enzyme reactions were carried out in 384-well black flat-bottom low-flange plates (Corning, 35373). DUB activity was measured using IQF K63-linked diubiquitin (LifeSensors, DU6303) at 50 nM. Cleaved diubiquitin was monitored by measuring fluorescence intensity (excitation, 544 nm; emission, 575 nm; dichroic mirror, 560 nm). Fluorescence intensity was measured every minute for 30 min at 30 °C. Fluorescence intensity units were plotted against time to generate a linear reaction progress curve, where the initial velocity (V0) corresponds to the gradient of the curve (typically achieved within 15 min). IC50 values were calculated using the GraphPad Prism (version 9.0) built-in dose–response equation for inhibitor concentration versus response (variable slope).

As usually defined, the IC50 is the point on the concentration scale where inhibition reaches its midpoint.

As to `O=C(NC1CCNCC1)c1n[nH]cc1NC(=O)c1c(Cl)cccc1Cl` [AT7519 (Sellekchem)], the “normalised V0, Mean” value on BRISC [1] (log[compound (μM)] 0.0000) was 0.9555; at BRISC [1] (log[compound (μM)] 0.6990) it was 1.0013; at BRISC [1] (log[compound (μM)] 1.0000), 1.0109; at BRISC [1] (log[compound (μM)] 1.4771), 0.9903; on BRISC [1] (log[compound (μM)] 1.6990), 1.0462; on BRISC [1] (log[compound (μM)] 2.0000), 1.0357. Further, the “normalised V0, Mean” value stood at 0.9736 at BRISC [1] (log[compound (μM)] 2.3010), 1.0118 at BRISC [1] (log[compound (μM)] -1.0000), 0.9395 on BRISC [1] (log[compound (μM)] -1.3010) and 1.0025 on BRISC [1] (log[compound (μM)] -4.0000).
Regarding `O=C(NC1CCNCC1)c1n[nH]cc1NC(=O)c1c(Cl)cccc1Cl` [AT7519 (Synkinase)], the “normalised V0, Mean” value was 0.9360 on BRISC [1] (log[compound (μM)] 0.0000); 0.9184 on BRISC [1] (log[compound (μM)] 1.0000); 0.8902 at BRISC [1] (log[compound (μM)] 1.3010); 0.8666 on BRISC [1] (log[compound (μM)] 1.6990); 0.8425 at BRISC [1] (log[compound (μM)] 2.0000); 1 on BRISC [1] (log[compound (μM)] -3.0000, normalisation point).
As for `O=C(NC1CCNCC1)c1n[nH]cc1NC(=O)c1c(Cl)cccc1Cl` [AT7519, N-(4-piperidinyl)-4-(2,6-dichlorobenzoylamino)-1H-pyrazole-3-carboxamide, reference compound], the “inhibition of BRISC DUB activity (in words)” value against BRISC [2] (IQF diubiquitin assay) is reported as “neither inhibited”.
As to `CN1CCC(NC(=O)c2nn(C(=O)c3c(Cl)cccc3Cl)cc2NC(=O)c2c(Cl)cccc2Cl)CC1` [FX-25-1], on BRISC [2], the half-maximal inhibitory concentration (IC50) stood at 5.2 µM. Also, the “normalised V0, Mean” value is on record as 1 on BRISC [2] (inhibitor 0.0268861 μM); 0.8889 at BRISC [2] (inhibitor 0.268861 μM); 0.8346 at BRISC [2] (inhibitor 0.806584 μM); 0.6971 on BRISC [2] (inhibitor 2.41975 μM); 0.4496 on BRISC [2] (inhibitor 7.25926 μM); 0.3208 on BRISC [2] (inhibitor 21.7778 μM). Also, the “normalised V0, Mean” value came out at 0.1744 on BRISC [2] (inhibitor 65.3333 μM) and 0.1298 at BRISC [2] (inhibitor 196 μM).
Regarding `C[N+]1(C)CCC(NC(=O)c2nn(C(=O)c3c(Cl)cccc3Cl)cc2NC(=O)c2c(Cl)cccc2Cl)CC1` [FX-25-2], the IC50 at BRISC [2] was found to be 21 µM. Further, the “normalised V0, Mean” value was found to be 1 at BRISC [2] (inhibitor 0.0268861 μM); 1.082 at BRISC [2] (inhibitor 0.268861 μM); 1.109 on BRISC [2] (inhibitor 0.806584 μM); 1.0044 on BRISC [2] (inhibitor 2.41975 μM); 1.002 on BRISC [2] (inhibitor 7.25926 μM); 0.6484 on BRISC [2] (inhibitor 21.7778 μM). Moreover, the “normalised V0, Mean” value at BRISC [2] (inhibitor 65.3333 μM) was 0.3437; on BRISC [2] (inhibitor 196 μM), 0.2841.
For the compound `O=C(NC1CCNCC1)c1nn(C(=O)c2c(Cl)cccc2Cl)cc1NC(=O)c1c(Cl)cccc1Cl` [JMS175-2], the “Mean V0” value at BRISC [2] (log[compound (μM)] 0.1938) is listed as 0.5385; at BRISC [2] (log[compound (μM)] 0.4949), 0.3840; on BRISC [2] (log[compound (μM)] 0.7959), 0.2986; on BRISC [2] (log[compound (μM)] 1.0969) it was 0.2014; on BRISC [2] (log[compound (μM)] 1.3979), 0.1684; at BRISC [2] (log[compound (μM)] 1.6990) it was 0.1492. Also, the “Mean V0” value on BRISC [2] (log[compound (μM)] 2.0000) stood at 0.0500; at BRISC [2] (log[compound (μM)] 2.3010) it was 0.0048; at BRISC [2] (log[compound (μM)] -0.1072), 0.7414; at BRISC [2] (log[compound (μM)] -1.1072), 0.9992; on BRISC [2] (log[compound (μM)] -2.0000), 1.0000.
